Measurements published in PMC3045100, “Cell-Penetrating Penta-Peptides (CPP5s): Measurement of Cell Entry and Protein-Transduction Activity” (Pharmaceuticals, 2010).

Tested on: DAMI cells
Experiment: Cell-penetration activity of Fam-labeled CPP5s, cellular fluorescence by FACS and/or microscopy
Assay type: cell-based, human
Conditions: peptides Fam-labeled on the N-terminus, 200 μM, 3 h, 37 °C, fluorescence intensity of cells by FACS, mean of triplicate samples
Method: Figure 1 Cell-penetration activity of CPP5s. a. List of cell-penetrating penta-peptides (CPP5s). […] Peptide sequences are color-coded to show the constant amphipathic amino acid arrangement in each CPP5. Cell-penetration activity was determined by fluorescence intensity of cells (DAMI cells: a human megakaryocytic cancer cell line) incubated with fluorescein (Fam)-labeled peptides (200 μM) for 3 h at 37 °C as described in Experimental Procedures. Fam was labeled on the N-terminus of all peptides examined. Cells were analyzed by FACS and/or microscopy. The activity of each peptide is shown as a percentage of the activity of KLPVM. Each value represents the mean of triplicate samples. Cell entry of some peptides was confirmed by microscopy only, and these peptides are indicated with a ‘+’ without a percentage value. For cytoprotective activity (right column), the information is based on previous studies and the activity was determined by the protection of cells from Bax overexpression and other apoptotic stimuli such as etoposide treatment. b to e. Cell entry of Fam-labeled VPTLK, KLPVM, TAT, and poly-arginine (R8). HeLa cells were incubated with Fam-labeled VPTLK, KLPVM (200 μM), Fam-TAT (10 μM), and Fam-R8 (10 μM) for 1 h at 37 °C. Images are at 20× magnification. f. Comparison of the cytotoxicity of CPP5 and TAT. Primary cultured mouse embryonic fibroblast (MEF) cells were treated with various concentrations of peptides for 24 h as indicated. Then, apoptosis was analyzed as described in Experimental Procedures. Each bar represents the mean of triplicate samples and standard error. TEXT PRINTED IN THE PICTURE: (a) VPMLK: Cell Penetration (%): 97 ± 4.3; Cytoprotection: + | (a) VPTLK: Cell Penetration (%): 61 ± 1.7; Cytoprotection: + | (a) VPALR: Cell Penetration (%): 79 ± 1.5; Cytoprotection: + | (a) VSALK: Cell Penetration (%): 90 ± 3; Cytoprotection: N.D. | (a) PMLKE: Cell Penetration (%): 65 ± 3.7; Cytoprotection: + | (a) VPALK: Cell Penetration (%): 71 ± 2.2; Cytoprotection: + | (a) VSLKK: Cell Penetration (%): +; Cytoprotection: - | (a) VSGKK: Cell Penetration (%): +; Cytoprotection: - | (a) KLPVM: Cell Penetration (%): 100 ± 2.3; Cytoprotection: - | (a) IPMIK: Cell Penetration (%): 47 ± 1.4; Cytoprotection: - | (a) KLGVM: Cell Penetration (%): +; Cytoprotection: - | (a) KLPVT: Cell Penetration (%): +; Cytoprotection: - | (a) VPMIK: Cell Penetration (%): +; Cytoprotection: N.D. | (a) IPALK: Cell Penetration (%): +; Cytoprotection: N.D. | (a) IPMLK: Cell Penetration (%): +; Cytoprotection: N.D. | (a) VPTLQ: Cell Penetration (%): 70 ± 4; Cytoprotection: - | (a) QLPVM: Cell Penetration (%): +; Cytoprotection: - | (a) ELPVM: Cell Penetration (%): +; Cytoprotection: - | (a) VPTLE: Cell Penetration (%): 80 ± 1.9; Cytoprotection: N.D.
CPP5s that were designed based on the Bax-binding domain of Ku70 of several species are named Bax-Inhibiting Peptides (BIPs); they are VPMLK, PMLKE, VPTLK, VPALR, and VPALK. VPMLK and PMLKE were designed from human Ku70, and the same sequence exists in the Ku70 homologues of dog and monkey. VPTLK and VPALR are based on mouse and rat Ku70, respectively. VPALK was designed from cattle Ku70, and the same sequence exists in Ku70 of the African clawed frog. Cytoprotective activities of these BIPs have been previously reported, both in cell culture and animal models. […] The observed variation in cell-entering activity of Fam-labeled-CPP5s is shown in Figure 1a as a percentage of the activity of KLPVM. In all cases, Fam was attached to the N-terminal amino acid. For some CPP5s, cell-penetration activity was confirmed by detection of an intracellular fluorescent signal by microscopy. These latter results are indicated with ‘+’ symbols, and a quantitative comparison with the activity of KLPVM was not performed. […]

## VPTLK
  Cell Penetration (%), percentage of the activity of KLPVM: 61 ± 1.7%
